Values of other authors as cited in publication PMC11053489 (Viruses, 2024).

System: SARS-CoV-2 with mutations in the RNA-dependent RNA polymerase gene
Details: cited from earlier work

For `CCC(CC)COC(=O)[C@H](C)N[P@](=O)(OC[C@H]1O[C@@](C#N)(c2ccc3c(N)ncnn23)[C@H](O)[C@@H]1O)Oc1ccccc1` [Remdesivir], the “increase in EC50 of resistant lineages” value is given as 2.5 to 10 fold.
